{"source": "ChEMBL document CHEMBL3045664", "about": "“Docking study on trametenolic acid B as a -glucosidase inhibitor” (Med Chem Res, 2012)", "biological_target": "Alpha-glucosidase MAL62 (Saccharomyces cerevisiae, UniProt P07265)", "sequence (P07265 whole entry)": "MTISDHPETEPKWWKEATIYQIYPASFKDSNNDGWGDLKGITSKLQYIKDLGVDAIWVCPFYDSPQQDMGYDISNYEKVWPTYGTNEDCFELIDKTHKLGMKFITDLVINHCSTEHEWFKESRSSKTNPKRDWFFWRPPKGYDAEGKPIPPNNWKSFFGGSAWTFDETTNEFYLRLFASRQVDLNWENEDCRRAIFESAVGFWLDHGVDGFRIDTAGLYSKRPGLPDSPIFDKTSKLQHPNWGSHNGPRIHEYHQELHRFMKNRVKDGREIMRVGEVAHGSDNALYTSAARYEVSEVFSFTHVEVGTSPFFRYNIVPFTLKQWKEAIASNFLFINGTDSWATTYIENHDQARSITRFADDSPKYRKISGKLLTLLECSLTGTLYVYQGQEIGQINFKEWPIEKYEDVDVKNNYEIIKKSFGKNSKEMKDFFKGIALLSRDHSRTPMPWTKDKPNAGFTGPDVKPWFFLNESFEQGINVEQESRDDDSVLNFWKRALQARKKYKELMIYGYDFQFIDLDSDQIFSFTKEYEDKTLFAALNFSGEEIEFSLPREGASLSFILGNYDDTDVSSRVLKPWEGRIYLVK", "experiment": "Inhibition of Saccharomyces cerevisiae (baker's yeast) alpha-glucosidase using p-nitrophenyl glucopyranoside as substrate preincubated for 30 min before substrate addition measured after 1 hr by spectrophotometric analysis", "data": [{"molecule": "CC(C)=CCC[C@@H](C(=O)O)[C@H]1CC[C@@]2(C)C3=C(CC[C@]12C)[C@@]1(C)CC[C@H](O)C(C)(C)[C@@H]1CC3", "note": "[TRAMETENOLIC ACID]", "values": [{"measurement": "IC50", "value": 17.1, "unit": "µM"}]}]}
